The target of the test is Vascular endothelial growth factor receptor 2 (Homo sapiens, UniProt P35968). The experiment in a line: VEGF-R2 Receptor-Linked Tyrosine Kinase Assay. As to the method:
Compounds were evaluated for their ability to inhibit the kinase activity using an ELISA-based assay. The 96-well microtiter plate is coated with substrate solution. The reaction is initiated by adding recombinant human VEGF-R2 to reaction mixture containing inhibitor compound. After the incubation, the detection antibody, Eu-N1 antiphosphotyrosine (PT66) antibody, was added, and the fluorescence of the resulting solution was measured using the Victor Multilabel Counter.

Chain of Vascular endothelial growth factor receptor 2 (P35968 whole entry): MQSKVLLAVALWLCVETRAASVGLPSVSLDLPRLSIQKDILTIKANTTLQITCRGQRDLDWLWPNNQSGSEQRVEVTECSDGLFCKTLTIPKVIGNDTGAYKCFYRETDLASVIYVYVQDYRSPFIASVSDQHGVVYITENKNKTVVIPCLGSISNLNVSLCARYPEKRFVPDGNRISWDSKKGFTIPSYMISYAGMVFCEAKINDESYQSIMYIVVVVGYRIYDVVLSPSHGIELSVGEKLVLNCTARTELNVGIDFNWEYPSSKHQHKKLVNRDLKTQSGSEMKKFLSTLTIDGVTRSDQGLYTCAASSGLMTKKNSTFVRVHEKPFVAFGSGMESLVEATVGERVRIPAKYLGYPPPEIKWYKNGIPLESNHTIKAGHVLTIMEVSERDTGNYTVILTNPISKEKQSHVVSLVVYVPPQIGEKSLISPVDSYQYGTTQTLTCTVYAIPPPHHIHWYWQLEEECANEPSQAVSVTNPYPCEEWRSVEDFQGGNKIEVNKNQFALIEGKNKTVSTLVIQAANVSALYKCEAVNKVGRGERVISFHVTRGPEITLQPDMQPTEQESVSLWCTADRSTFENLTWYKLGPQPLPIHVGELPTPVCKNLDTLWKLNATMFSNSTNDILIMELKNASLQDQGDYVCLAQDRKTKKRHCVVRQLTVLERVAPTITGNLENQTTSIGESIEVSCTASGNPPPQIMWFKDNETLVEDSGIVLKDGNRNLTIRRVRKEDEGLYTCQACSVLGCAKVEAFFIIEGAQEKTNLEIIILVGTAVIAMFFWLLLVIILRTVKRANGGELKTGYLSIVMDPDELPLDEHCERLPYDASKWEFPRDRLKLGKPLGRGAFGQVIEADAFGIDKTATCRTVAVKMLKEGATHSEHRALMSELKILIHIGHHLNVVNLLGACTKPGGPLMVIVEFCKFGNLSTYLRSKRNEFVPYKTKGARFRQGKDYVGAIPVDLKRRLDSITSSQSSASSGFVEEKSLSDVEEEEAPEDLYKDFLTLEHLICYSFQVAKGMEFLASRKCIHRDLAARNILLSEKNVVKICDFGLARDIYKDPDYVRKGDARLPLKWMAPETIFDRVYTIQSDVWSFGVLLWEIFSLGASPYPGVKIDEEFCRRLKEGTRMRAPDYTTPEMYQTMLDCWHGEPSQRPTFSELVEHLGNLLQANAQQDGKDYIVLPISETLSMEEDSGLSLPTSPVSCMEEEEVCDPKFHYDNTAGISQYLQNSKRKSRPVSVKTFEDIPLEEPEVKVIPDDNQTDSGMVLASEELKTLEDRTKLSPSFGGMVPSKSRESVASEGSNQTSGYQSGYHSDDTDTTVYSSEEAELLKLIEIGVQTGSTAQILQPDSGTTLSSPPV

Broadly, the IC50 is the midpoint of a concentration-inhibition curve. High values mean weaker potency, low ones greater potency. `CC(C)Oc1ccc2c(c1)CCc1c-2c2c(c3c4ccccc4n(CCO)c13)CNC2=O` [3-(2-hydroxyethyl)-20-(propan-2-yloxy)-3,13-diazahexacyclo[14.8.0.0^{2,10}.0^{4,9}.0^{11,15}.0^{17,22}]tetracosa-1(16),2(10),4(9),5,7,11(15),17(22),18,20-nonaen-14-one] had a 50% inhibitory concentration (IC50) of 3.38 µM. This counts as single-digit micromolar.

Regarding `COc1ccc2c(c1)CCc1c-2c2c(c3c4ccccc4n(CCO)c13)CNC2=O` [3-(2-hydroxyethyl)-20-methoxy-3,13-diazahexacyclo[14.8.0.0^{2,10}.0^{4,9}.0^{11,15}.0^{17,22}]tetracosa-1(16),2(10),4(9),5,7,11(15),17(22),18,20-nonaen-14-one], inhibition was half-maximal at 4.72 µM (IC50).

For the origin of these results see BindingDB's records for doi:10.1021/jm8005838 (Cephalon, 2008).
